Test results reported in patent US12202805B2, “Process for preparing (5S)-{[2-(4-carboxyphenyl)ethyl] |2-(2-{|3-chloro-4'-(trifluoromethyl)biphenyl-4-yl]methoxy}phenyl)ethyl]aminol-5,6,7,8-tetrahydroquinoline-2-carboxylic acid and its crystalline forms for use as pharmaceutically active compound” (Bayer Aktiengesellschaft, priority 2021, dated 2025).
Read-outs that look alike come from different tables or passages of the source.

Test: E-2.3 inhalative, oral and intravenous single doses in healthy male subjects: plasma concentrations and lung deposition
Type: in vivo, human
Settings: for concentration at 0 h: 0 h after dose, heading: Geometric mean of plasma concentrations; for concentration at 0.25 h: 0.25 h after dose; for concentration at 0.5 h: 0.5 h after dose; for concentration at 0.75 h: 0.75 h after dose; for concentration at 1 h: 1 h after dose; for concentration at 1.5 h: 1.5 h after dose; for concentration at 2 h: 2 h after dose; for concentration at 2.5 h: 2.5 h after dose; for concentration at 3 h: 3 h after dose; for concentration at 4 h: 4 h after dose; for concentration at 6 h: 6 h after dose; for concentration at 8 h: 8 h after dose; for concentration at 12 h: 12 h after dose; for concentration at 15 h: 15 h after dose; for concentration at 24 h: 24 h after dose; for concentration at 28 h: 28 h after dose; for concentration at 32 h: 32 h after dose; for concentration at 36 h: 36 h after dose
Experimental: E-2.3 Inhalative, Oral and Intravenous Administration of Single Doses of sGC an Activator in Healthy Male Subjects—Lung Deposition
Healthy white male subjects, aged 18 to 45 years with a body mass index (BMI) above/equal 18.5 and below/equal 29.9 kg/m^2 were treated in a clinical phase I study with a single inhaled dose of 1000 μg (nominal dose), a single inhaled dose of 1000 μg (nominal dose)+charcoal block, a single oral dose of 1000 μg and a single infusion over 2 h of 100 μg of example 4. As the bioavailability of an intravenous application is generally 100% per definition and therefore higher than in case of an oral or […], the intravenous dose was carefully selected to be lower than the oral and inhaled dose to avoid higher plasma concentration resulting from a high IV dose and potential side effect, e.g. reduction in blood pressure or syncope. Therefore, 100 μg was selected for the IV dose in this investigation. Seven days washout period between treatments was applied. The subjects swallowed a solution for oral administration (20 ml comprising 1000 μg, see under C-2, table 26). The subjects received a solution as a single infusion over 2 hours (2 ml comprising 100 μg, see under C-2 table 26). The subjects inhaled the drug powder from capsules (see under C-1, tables 17 and 20) inserted into a handheld inhalation device by one deep inhalative breath. After inhalation of the dry powder formulation of this drug, some parts of the nominal dose remain in the capsule and the device, the dose which reaches the body at the mouthpiece is called the emitted dose. The emitted dose can be calculated/determined as followed: nominal dose−(remains in the capsule+remains in the device). After inhalation of the dry powder, one part of the emitted dose enters the gastrointestinal tract (GIT) and is called the oral part of the emitted dose, the other part of the emitted dose which reaches the lung through the respiratory airways is called the lung dose and represents the lung deposited dose. As the lung is the target organ of the effect, the lung deposited dose must be quantified. Lung deposition can be indirectly estimated, by determining the part of the nominal dose which reaches the GIT and the remains in the capsule and the device. To investigate and determine lung deposition, the following investigations were done (see also FIG. 59): • 1—Inhaled application of a single dose of 1000 μg of the dry powder. • 2—Inhaled application of a single dose of 1000 μg of the dry powder in combination with oral administration of charcoal block. The charcoal block capped the oral absorption of GIT part of the dose, as example 4 completely adsorbed to charcoal block. This implies that the concentrations of example 4 measured reach the systemic circulation via the lung. • 3—Administration of a single oral dose of […] example 4 to determine the oral absorption. • 4—Administration of a 2 h infusion of example 4 to investigate the elimination.

[1] = male, human, plasma, inhaled, 1000 μg, healthy male subjects, single 1000 μg inhale + Charcoal Block, N = 16, read-out: Geometric mean of plasma concentrations
[2] = male, human, plasma, inhaled, 1000 μg, healthy male subjects, single 1000 μg inhale, N = 16, read-out: Geometric mean of plasma concentrations
[3] = male, human, plasma, iv, 100 μg, healthy male subjects, 100 μg IV infusion over 2 h, N = 15, read-out: Geometric mean of plasma concentrations
[4] = male, human, plasma, po, 1000 μg, healthy male subjects, single 1000 μg oral, N = 16, read-out: Geometric mean of plasma concentrations

**Q.** What does the source list for `O=C(O)c1ccc(CCN(CCc2ccccc2OCc2ccc(-c3ccc(C(F)(F)F)cc3)cc2Cl)[C@H]2CCCc3nc(C(=O)O)ccc32)cc1` [example 4, (5S)—{[2-(4-Carboxyphenyl)ethyl][2-(2-{[3-chloro-4′-(trifluoromethyl)biphenyl-4-yl]methoxy}phenyl)-ethyl]amino}-5,6,7,8-tetrahydroquinoline-2-carboxylic acid as Monohydrate I]?
**A.** emitted dose (after inhalation of 1000 μg in humans): 720 µg; oral part of the dose (inhaled 1000 μg): approximately 13 % of the nominal dose; lung dose (part of nominal dose that reached the lung) (inhaled dry powder): 16.3 % of the nominal dose; total part of the dry powder reaching the body (inhaled dry powder): 18.8 % of the nominal dose; concentration at 0 h (male, human, plasma, inhaled, 1000 μg, healthy male subjects, single 1000 μg inhale + Charcoal Block, N = 16): < 0.05 ng/mL; concentration at 0.25 h [1]: 0.0583 ng/mL; concentration at 0.5 h [1]: 0.261 ng/mL; concentration at 0.75 h [1]: 0.491 ng/mL; concentration at 1 h [1]: 0.662 ng/mL; concentration at 1.5 h [1]: 0.9 ng/mL; concentration at 2 h [1]: 0.969 ng/mL; concentration at 2.5 h [1]: 1.02 ng/mL; concentration at 3 h [1]: 0.933 ng/mL; concentration at 4 h [1]: 0.812 ng/mL; concentration at 6 h [1]: 0.508 ng/mL; concentration at 8 h [1]: 0.373 ng/mL; concentration at 12 h [1]: 0.22 ng/mL; concentration at 15 h [1]: 0.157 ng/mL; concentration at 24 h [1]: 0.0931 ng/mL; concentration at 28 h [1]: 0.0761 ng/mL; concentration at 32 h [1]: 0.0696 ng/mL; concentration at 36 h [1]: 0.054 ng/mL; concentration at 0 h (male, human, plasma, inhaled, 1000 μg, healthy male subjects, single 1000 μg inhale, N = 16): < 0.05 ng/mL; concentration at 0.25 h [2]: 0.0628 ng/mL; concentration at 0.5 h [2]: 0.316 ng/mL; concentration at 0.75 h [2]: 0.622 ng/mL; concentration at 1 h [2]: 0.869 ng/mL; concentration at 1.5 h [2]: 1.16 ng/mL; concentration at 2 h [2]: 1.2 ng/mL; concentration at 2.5 h [2]: 1.18 ng/mL; concentration at 3 h [2]: 1.07 ng/mL; concentration at 4 h [2]: 0.927 ng/mL; concentration at 6 h [2]: 0.583 ng/mL; concentration at 8 h [2]: 0.415 ng/mL; concentration at 12 h [2]: 0.25 ng/mL; concentration at 15 h [2]: 0.181 ng/mL; concentration at 24 h [2]: 0.106 ng/mL; concentration at 28 h [2]: 0.0793 ng/mL; concentration at 32 h [2]: 0.0698 ng/mL; concentration at 36 h [2]: 0.058 ng/mL; concentration at 0 h (male, human, plasma, iv, 100 μg, healthy male subjects, 100 μg IV infusion over 2 h, N = 15): < 0.05 ng/mL; concentration at 0.25 h [3]: 1.76 ng/mL; concentration at 0.5 h [3]: 2.52 ng/mL; concentration at 0.75 h [3]: 2.68 ng/mL; concentration at 1 h [3]: 2.99 ng/mL; concentration at 1.5 h [3]: 3.15 ng/mL; concentration at 2 h [3]: 3.07 ng/mL; concentration at 2.083 h (male, human, plasma, iv, 100 μg, healthy male subjects, 100 μg IV infusion over 2 h, N = 15, 2.083 h after dose, read-out: Geometric mean of plasma concentrations): 2.57 ng/mL; concentration at 2.25 h (male, human, plasma, iv, 100 μg, healthy male subjects, 100 μg IV infusion over 2 h, N = 15, 2.25 h after dose, read-out: Geometric mean of plasma concentrations): 1.42 ng/mL; concentration at 2.5 h [3]: 0.559 ng/mL; concentration at 2.75 h (male, human, plasma, iv, 100 μg, healthy male subjects, 100 μg IV infusion over 2 h, N = 15, 2.75 h after dose, read-out: Geometric mean of plasma concentrations): 0.264 ng/mL; concentration at 3 h [3]: 0.132 ng/mL; concentration at 0 h (male, human, plasma, po, 1000 μg, healthy male subjects, single 1000 μg oral, N = 16): < 0.05 ng/mL; concentration at 0.25 h [4]: 0.777 ng/mL; concentration at 0.5 h [4]: 3.64 ng/mL; concentration at 0.75 h [4]: 5.28 ng/mL; concentration at 1 h [4]: 5.68 ng/mL; concentration at 1.5 h [4]: 4.69 ng/mL; concentration at 2 h [4]: 3.32 ng/mL; concentration at 2.5 h [4]: 2.26 ng/mL; concentration at 3 h [4]: 1.6 ng/mL; concentration at 4 h [4]: 1.01 ng/mL; concentration at 6 h [4]: 0.424 ng/mL; concentration at 8 h [4]: 0.233 ng/mL; concentration at 12 h [4]: 0.126 ng/mL; concentration at 15 h [4]: 0.0714 ng/mL
